Measurements as given in US7569608B2, “Pentanoic acid derivatives” (Ono Pharmaceutical Co., Ltd., priority 1993, dated 2009).

Legend:
GABAA receptor [1] = experiment: Experiment 2: regeneration of GABAA receptor responses in reactive astrocytes; type: cell-based, rat; conditions: 14 DIV after serial passages, control 8 ± 6
Experimental: (§1) Preparation of astrocyte cultures: After removing the meninges, isolated cerebrum of neonatal rats (age: day 1) were placed on frosted glass-slides and minced. The sample was then digested with trypsin (0.25%) and DNase 1 (0.02%) and suspended in 10% FCS-DMEM before centrifugation. After resuspending in 10% FCS-DMEM, the suspension was dispersed in dishes and cultured at 37° C. under 5% CO2 atmosphere. Non-adherent cells were removed from the dishes after agitation/washing on post-culture 24 hours. Note that the adherent cell population was composed of more than 95% of GFAP-positive cells.
(§2) GFAP contents and GABAA receptor responses: The improvement effects on astrocyte functions were evaluated from the following indices: inhibition derived from the increase in GFAP content and inhibition in the disappearance of GABAA receptor responses. Thus, sodium valproate (Sigma Chem. Co., U.S.A.) was added on 1 DIV followed by whole-cell mode voltage-clamp method on 7 DIV-to measure the GABA (3×10^−5 M)-induced Cl^− current. The Cl^− current was taken as an index for the GABA response. Furthermore, GFAP contents were determined by the ELISA method on 11 DIV.
Astrocytes were prepared and cultured in a manner similar to Experiment 1. On 14 DIV, reactive astrocytes were subjected to a serial passage (10^5 cells/dish). The thus adherent reactive astrocytes were washed, and transferred to culture media containing the present effectively developed compound(s) or invention. On 14 DIV after serial passages, GABAA receptor responses were tested according to procedures designated in Experiment 1.

astrocytes = experiment: Experiment 1: GFAP contents of cultured astrocytes (ELISA); type: cell-based, rat; conditions: added on 1 DIV, ELISA on 11 DIV, ratio of the control group (control 100.0)
Experimental: as §1, §2
The GFAP contents were expressed as a ratio of the control group.

GABAA receptor [2] = experiment: Experiment 1: GABAA receptor responses of cultured astrocytes (GABA-induced Cl- current, whole-cell voltage-clamp); type: cell-based, rat; conditions: added on 1 DIV, measured on 7 DIV, GABA 3×10^−5 M-induced Cl− current, control 90 ± 43
Experimental: as §1, §2

neurons = experiment: Experiment 3: suppression of cell death in neurons-astrocytes co-culture; type: cell-based, rat; conditions: 3 mM, neurons co-cultured with astrocytes
Experimental: Astrocytes, prepared in a manner similar to that of Experiment 1, were cultured for 14 days. Previously prepared neurons (3×10^4 cells/well), isolated from cerebrum of 19-day old fetus rats, were added to the cultured astrocytes (3×10^5 cells/well) and allowed to grow. During the culture process, survival rates and neuronal dendrite extension/ramification of neurons were observed. Note that, sodium valproate (3 mM) and astrocytes were initially added to the neurons concomitantly, and freshly prepared similar culture media containing the invented compound (3 mM) were subsequently added at 3˜4-day intervals.

[3] = system: experimental brain ischemia model; experiment: Experiment 4: experimental brain ischemia, conditional avoidance experiment; type: in vivo, rat; conditions: 300 mg/kg i.p. once daily for 4 days after deligation; 10 trials within 2 days; ischemic reference 2.8±0.8, normal 6.1±0.7, sham 4.8±0.8
Experimental: Establishing the experimental brain ischemia model: Vertebral arteries of pentobarbital-anesthetized rats were bilaterally coagulated, and a period of 7 days was allowed for recovery. The previously surgically exposed bilateral common carotid arteries of ischemic rats were mechanically ligated for 20 min. Immediately after deligation, the rats were once daily injected i.p. with sodium valproate (300 mg/kg) for 4 consecutive days. On deligation day 5˜6, mobility aspects in the conditional avoidance experiment were monitored.
Mobility aspects of the conditional avoidance experiment: The step-up model of the dark/light box was used. Animals placed in the dark section of the grid-floored box with the connecting door closed were allowed to accustomed to the environment for 1 minute. The door was then opened for 10 seconds. Rats that stepped up to the lighted section via the opened door were considered positive in the conditional avoidance test. Animals categorized as negative in the test were placed in the dark section with the door closed for 10 seconds prior to subjecting them to electric foot shock at 2 mA for 50 seconds. […] The above procedure was repeated 5 trials per day at 30-minutes intervals. A total of 10 trials within 2 days were attempted.

CCCC[C@@H](CC)C(=O)O (racemic) [Example 11]
GABAA receptor responses (means ± S.E.) (GABAA receptor [1]; 0.3 mM): 35 ± 15 pA
GABAA receptor responses (means ± S.E.) (GABAA receptor [1]; 1.0 mM): 190 ± 134 pA
GABAA receptor responses (means ± S.E.) (GABAA receptor [1]; 3.0 mM): 281 ± 174 pA

CCCC(CCCCCC(F)F)C(=O)[O-].[Na+] (centres unmarked) [Example 2(2)]
GABAA receptor responses (means ± S.E.) (GABAA receptor [1]; 0.1 mM): 114 ± 81 pA
GABAA receptor responses (means ± S.E.) (GABAA receptor [1]; 0.3 mM): 527 ± 201 pA

CCCC(CCCF)C(=O)[O-].[Na+] (centres unmarked) [Example 2(5)]
GABAA receptor responses (means ± S.E.) (GABAA receptor [1]; 3.0 mM): 326 ± 148 pA

CCCC(CCCCF)C(=O)[O-].[Na+] (centres unmarked) [Example 2(6)]
GABAA receptor responses (means ± S.E.) (GABAA receptor [1]; 0.3 mM): 184.0 ± 118.1 pA
GABAA receptor responses (means ± S.E.) (GABAA receptor [1]; 3.0 mM): 528.0 ± 160.2 pA

CCCC(CCCC(F)(F)F)C(=O)[O-].[Na+] (centres unmarked) [Example 2(8)]
GABAA receptor responses (means ± S.E.) (GABAA receptor [1]; 1.0 mM): 470.6 ± 124.9 pA
GABAA receptor responses (means ± S.E.) (GABAA receptor [1]; 3.0 mM): 808.6 ± 325.4 pA

CCCC(CCCCCC(F)(F)F)C(=O)[O-].[Na+] (centres unmarked) [Example 2(9)]
GABAA receptor responses (means ± S.E.) (GABAA receptor [1]; 0.3 mM): 236.4 ± 85.5 pA

CCCC(CCCCC(F)(F)F)C(=O)[O-].[Na+] (centres unmarked) [Example 2(10)]
GABAA receptor responses (means ± S.E.) (GABAA receptor [1]; 0.3 mM): 800.0 ± 415.6 pA

CCCC(CCC(F)(F)F)C(=O)[O-].[Na+] (centres unmarked) [Example 2(12)]
GABAA receptor responses (means ± S.E.) (GABAA receptor [1]; 1.0 mM): 672 ± 242 pA
GABAA receptor responses (means ± S.E.) (GABAA receptor [1]; 3.0 mM): 1109 ± 227 pA

CCCCCCCC(CCC)C(=O)O (centres unmarked) [Example 2-PNA, 2-propylnonanic acid]
GABAA receptor responses (means ± S.E.) (GABAA receptor [1]; 0.03 mM): 85 ± 41 pA
GABAA receptor responses (means ± S.E.) (GABAA receptor [1]; 0.1 mM): 107 ± 50 pA
GABAA receptor responses (means ± S.E.) (GABAA receptor [1]; 0.3 mM): 380 ± 124 pA

CCCC(CCCCC(F)F)C(=O)[O-].[Na+] (centres unmarked) [Example 2]
GABAA receptor responses (means ± S.E.) (GABAA receptor [1]; 0.3 mM): 193 ± 103 pA
GABAA receptor responses (means ± S.E.) (GABAA receptor [1]; 1.0 mM): 628 ± 227 pA

CCCC(CCCCCCF)C(=O)[O-].[Na+] (centres unmarked) [Example 7(1)]
GABAA receptor responses (means ± S.E.) (GABAA receptor [1]; 0.3 mM): 260.0 ± 47.3 pA

CCCC(CCCCCCCF)C(=O)[O-].[Na+] (centres unmarked) [Example 7(2)]
GABAA receptor responses (means ± S.E.) (GABAA receptor [1]; 0.3 mM): 730.0 ± 226.4 pA

CCCC(CCC1CCCCC1)C(=O)[O-].[Na+] (centres unmarked) [Example 7(4)]
GABAA receptor responses (means ± S.E.) (GABAA receptor [1]; 0.3 mM): 163.0 ± 60.4 pA

CCCC(CCCCc1ccccc1)C(=O)[O-].[Na+] (centres unmarked) [Example 7(8)]
GABAA receptor responses (means ± S.E.) (GABAA receptor [1]; 1.0 mM): 59.0 ± 20.6 pA

CCCC(CCCOc1ccccc1)C(=O)[O-].[Na+] (centres unmarked) [Example 7(9)]
GABAA receptor responses (means ± S.E.) (GABAA receptor [1]; 0.3 mM): 512.1 ± 233.1 pA
GABAA receptor responses (means ± S.E.) (GABAA receptor [1]; 3.0 mM): 226.3 ± 60.5 pA

CCCC(CCCCOC)C(=O)[O-].[Na+] (centres unmarked) [Example 7(14)]
GABAA receptor responses (means ± S.E.) (GABAA receptor [1]; 3.0 mM): 285.7 ± 103.6 pA

CCCC(CCC(C)C)C(=O)[O-].[Na+] (centres unmarked) [Example 7(16)]
GABAA receptor responses (means ± S.E.) (GABAA receptor [1]; 0.3 mM): 105 ± 65 pA
GABAA receptor responses (means ± S.E.) (GABAA receptor [1]; 1.0 mM): 417 ± 140 pA

CCCC(CCCCC(C)C)C(=O)[O-].[Na+] (centres unmarked) [Example 7(17)]
GABAA receptor responses (means ± S.E.) (GABAA receptor [1]; 0.3 mM): 259.0 ± 83.7 pA

CCCC(CCCC(C)C)C(=O)[O-].[Na+] (centres unmarked) [Example 7(18)]
GABAA receptor responses (means ± S.E.) (GABAA receptor [1]; 1.0 mM): 658.6 ± 440.7 pA

CCCC(C(=O)[O-])C1CCCCC1.[Na+] (centres unmarked) [Example 7(26)]
GABAA receptor responses (means ± S.E.) (GABAA receptor [1]; 3.0 mM): 344.7 ± 342.5 pA

C=CCC(CCC)C(=O)[O-].[Na+] (centres unmarked) [Example 7(28)]
GABAA receptor responses (means ± S.E.) (GABAA receptor [1]; 3.0 mM): 122 ± 44 pA

CCCCCC(CCC)C(=O)[O-].[Na+] (centres unmarked) [Example 7(30)]
GABAA receptor responses (means ± S.E.) (GABAA receptor [1]; 0.3 mM): 233 ± 90 pA
GABAA receptor responses (means ± S.E.) (GABAA receptor [1]; 1.0 mM): 675 ± 201 pA

CCCCC(CCC)C(=O)[O-].[Na+] (centres unmarked) [Example 7(31)]
GABAA receptor responses (means ± S.E.) (GABAA receptor [1]; 0.3 mM): 51 ± 28 pA
GABAA receptor responses (means ± S.E.) (GABAA receptor [1]; 1.0 mM): 565 ± 278 pA
GABAA receptor responses (means ± S.E.) (GABAA receptor [1]; 3.0 mM): 590 ± 180 pA

CCCCCCCCC(CCC)C(=O)[O-].[Na+] (centres unmarked) [Example 7(32)]
GABAA receptor responses (means ± S.E.) (GABAA receptor [1]; 0.1 mM): 48 ± 20 pA

CCCCCCC(CCC)C(=O)[O-].[Na+] (centres unmarked) [Example 7(33)]
GABAA receptor responses (means ± S.E.) (GABAA receptor [1]; 0.03 mM): 40 ± 23 pA
GABAA receptor responses (means ± S.E.) (GABAA receptor [1]; 0.1 mM): 237 ± 69 pA
GABAA receptor responses (means ± S.E.) (GABAA receptor [1]; 0.3 mM): 1260 ± 521 pA

CCCCCOC(CCC)C(=O)[O-].[Na+] (centres unmarked) [Example 7(37)]
GABAA receptor responses (means ± S.E.) (GABAA receptor [1]; 0.3 mM): 139 ± 52 pA
GABAA receptor responses (means ± S.E.) (GABAA receptor [1]; 3.0 mM): 595 ± 190 pA

CCCC(CCCCCF)C(=O)[O-].[Na+] (centres unmarked) [Example 7]
GABAA receptor responses (means ± S.E.) (GABAA receptor [1]; 0.3 mM): 213.1 ± 150.1 pA
GABAA receptor responses (means ± S.E.) (GABAA receptor [1]; 1.0 mM): 661.7 ± 306.3 pA

CCCC(Cl)(CCC)C(=O)OC [Example 9]
GABAA receptor responses (means ± S.E.) (GABAA receptor [1]; 3.0 mM): 467 ± 187 pA

CC/C=C(\CCC)C(=O)[O-].[Na+] [Example 13]
GABAA receptor responses (means ± S.E.) (GABAA receptor [1]; 3.0 mM): 171 ± 55 pA

CCCC(CCC)C(=O)[O-].[Na+] [VPA, sodium valproate]
Ratio of increase in GFAP contents (astrocytes; 0.3 mM): 30.6%
Ratio of increase in GFAP contents (astrocytes; 1.0 mM): 36.3%
Ratio of increase in GFAP contents (astrocytes; 3.0 mM): 44.3%
GABAA receptor responses (means ± S.E.) (GABAA receptor [2]; 0.3 mM): 254 ± 106 pA
GABAA receptor responses (means ± S.E.) (GABAA receptor [2]; 1.0 mM): 432 ± 98 pA
GABAA receptor responses (means ± S.E.) (GABAA receptor [2]; 3.0 mM): 1301 ± 156 pA
GABAA receptor responses (means ± S.E.) (GABAA receptor [1]; 0.3 mM): 37 ± 26 pA
GABAA receptor responses (means ± S.E.) (GABAA receptor [1]; 1.0 mM): 193 ± 141 pA
GABAA receptor responses (means ± S.E.) (GABAA receptor [1]; 3.0 mM): 1263 ± 303 pA
Survival rates (on 22 days) (neurons; control <10%): 60-70%^
dendrite generation in the neurons (neurons; not observed in control): detected
conditional avoidance response, count (frequencies) [3]: 5.3±0.8
